Assay [1] deals with HSV-1 GFP. It is filed as cell-based, Herpes simplex virus 1 (HSV-1). As to conditions: for HSV entry into Vero cells (relative fluorescence intensity): 30 minutes pretreatment, ML-7 20 μM, ACC 40 μM.
A further assay deals with HSV-1(F). Kind of assay: Murine corneal infection model. It is filed as in vivo, ICR mice. The protocol: After the cornea of ICR mice (female/5-week-old) was slightly injured with an injection needle, a medium containing or not containing 20 μM ML-7 was instilled in the eye twice with an interval of 10 minutes. After incubation for 10 minutes, an HSV-1(F) strain was inoculated at 5×10^5 PFU/eye. The virus titer in the tear, symptoms of keratitis, and survival of mice were studied.
After the cornea of 28 ICR mice (female/5-week-old) per group was injured with an injection needle, a 20 μM medium containing or not containing ML-7 and 5×10^5 HSV-1(F) diluted in Medium199 were simultaneously instilled in their eye, followed by observation for 21 days.
After the cornea of 28 ICR mice (female/5-week-old) per group was injured with an injection needle, a 50 μM BAPTA-AM was instilled in their eye twice with an interval of 10 minutes. After incubation for 10 minutes, 5×10^5 HSV-1(F) diluted in Medium 199 was instilled in their eye, followed by observation for 21 days. In Mock-treated group, 0.2% DMSO in Medium 199 was used instead of 50 μM BAPTA-AM.

Assay [2] relates to HSV-1 GFP. It is filed as cell-based, Herpes simplex virus 1 (HSV-1).
In assay [3] the test system is influenza virus. It is filed as cell-based.
In assay [4] the test system is influenza virus. It is filed as cell-based. The source holds these as a separate data set.
In the next assay the test system is HSV-2 GFP. In words: HSV-2 GFP infection of Vero cells, flow cytometry. The conditions noted are these: Vero cells pretreated with ML-7. It is filed as cell-based, Herpes simplex virus 2. For orientation: Flow cytometry measures light scatter and fluorescence of single cells or particles in a stream.
The next assay relates to NMHC-IIA. It is filed as cell-based. The conditions noted are these: Vero cells pretreated with ML-7.
The next assay relates to NMHC-IIB. In words: NMHC-IIB at the cell surface of HSV-1(F)-infected Cos-1 cells, biotinylation, avidin precipitation, immunoblotting. As to conditions: Cos-1 cells pretreated with ML-7, wild-type HSV-1(F). Background: Immunoblotting shows a protein as a band on a membrane.
The subject of the next assay is phosphorylation of RLC. In words: Phosphorylation of RLC in Vero cells exposed to HSV-1, immunoblotting. The conditions noted are these: 20 μM ML-7, MOI=50.

Like-named read-outs stand apart in the source and are kept apart here.

For the molecule `Nc1nc2c(ncn2COCCO)c(=O)[nH]1` [ACC, acyclovir], the “HSV entry into Vero cells (relative fluorescence intensity)” value with HSV-1 GFP [1] (HSV-1 GFP MOI=1, six hours after infection) was “not inhibited”.

Regarding `CC(=O)OCOC(=O)CN(CC(=O)OCOC(C)=O)c1ccccc1OCCOc1ccccc1N(CC(=O)OCOC(C)=O)CC(=O)OCOC(C)=O` [BAPTA-AM], the survival rate entry with HSV-1(F) (50 μM BAPTA-AM instilled before infection, observation 21 days, vs Mock-treated group) was “significantly high”. For the same molecule, the “MFI, HSV-1 GFP” value in the assay with HSV-1 GFP [2] is “decreased in a BAPTA-AM concentration dependent manner”. The “influence on influenza virus infection” value with influenza virus [3] (Cos-1 cells, BAPTA-AM) is “not observed”. Moreover, the “mean fluorescence intensity (MFI), HSV-1 GFP” value in the assay on HSV-1 GFP [1] is listed as “decreased in a BAPTA-AM concentration dependent manner”. Also, the “relative MFI, influenza virus” value in the assay with influenza virus [4] is recorded as “not influenced”.

Regarding `O=S(=O)(c1cccc2c(I)cccc12)N1CCCNCC1` [ML-7], the “survival rate of mice” value is listed as “significant increase” with HSV-1(F) (20 μM ML-7 instilled before infection) and “further significant increase” with HSV-1(F) (20 μM ML-7 instilled simultaneously with HSV-1(F), observation 21 days). For the same molecule, the symptoms of keratitis result in the assay with HSV-1(F) (20 μM ML-7 instilled before infection, after five days, vs untreated mice) is “significant decrease”. In addition, the “virus titer in the tear” value with HSV-1(F) (20 μM ML-7 instilled before infection, two days after virus inoculation, vs untreated mice) was “significant decrease”. The “HSV-2 GFP infection” value in the assay on HSV-2 GFP is “dose-independently inhibited”. Also, the HSV-1 infection result in the assay with HSV-1 GFP [2] is reported as “dose-independently inhibited”. Moreover, in the assay with NMHC-IIA, the “increase in the concentration of NMHC-IIA in the vicinity of the cell membrane upon virus entry” value is “inhibited”. In addition, the influenza virus infection result with influenza virus [3] (Cos-1 cells pretreated with ML-7) and in the assay on influenza virus [4] (Vero cells pretreated with ML-7) was “not influenced” each time. Also, the “concentration of NMHC-IIB in the vicinity of the cell membrane” value in the assay on NMHC-IIB is on record as “decreased significantly”. Further, the “Infection with HSV-1 GFP” value in the assay with HSV-1 GFP [1] was “inhibited dose-dependently”. Further, in the assay on HSV-1 GFP [1] ([…]), the “HSV entry into Vero cells (relative fluorescence intensity)” value is reported as “inhibited”. For the same molecule, the “enhancement of phosphorylation of RLC by HSV-1 infection” value in the assay on phosphorylation of RLC was “inhibits this enhancement”.
